Assay [1] has as its system Staphylococcus capitis. Description: Antibacterial activity against Staphylococcus capitis. It is filed as functional.
For assay [2], the system named is Escherichia coli. Description: Antibacterial activity against Escherichia coli. It is filed as functional.
Assay [3] addresses Peptide deformylase (Escherichia coli) (UniProt P0A6K3). Briefly: Inhibition against Escherichia coli Peptide deformylase was measured at a concentration of 1 uM.

Values after ≈ are worked out from the molar mass of the structure shown.

Sequence of Peptide deformylase (Escherichia coli) (P0A6K3 whole entry, looked up): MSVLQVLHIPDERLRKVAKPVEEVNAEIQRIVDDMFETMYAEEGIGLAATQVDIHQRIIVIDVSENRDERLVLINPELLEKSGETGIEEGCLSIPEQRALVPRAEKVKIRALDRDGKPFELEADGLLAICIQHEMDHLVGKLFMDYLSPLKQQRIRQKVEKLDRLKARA

Consider `COc1ccc(C[C@H](CN(O)C=O)C(=O)N[C@H](C(=O)N(C)C)C(C)(C)C)cc1`, for which the MIC in assay [1] and in assay [2] was more than 200 µM in each case.

With `CN(C)C(=O)[C@@H](NC(=O)[C@@H](CN(O)C=O)c1ccc(Cl)cc1)C(C)(C)C`, the MIC in assay [1] and in assay [2] was more than 200 µM in each case.

As to `CC(C)C[C@H](CN(O)C=O)C(=O)N[C@H](C(=O)N(C)C)C(C)(C)C`, the MIC amounted to 200 µM (≈ 65.9 µg/mL) in assay [1] and 100 µM (≈ 32.9 µg/mL) in assay [2].

With `C=CCC[C@H](CN(O)C=O)C(=O)N[C@H](C(=O)N(C)C)C(C)(C)C`, the results for the MIC in assay [1] and in assay [2] were 200 µM (≈ 65.5 µg/mL) and 25 µM (≈ 8.19 µg/mL), respectively.

Consider `CC[C@H](CN(O)C=O)C(=O)N[C@H](C(=O)N(C)C)C(C)(C)C`, for which the MIC was more than 200 µM in assay [1] and 200 µM (≈ 60.3 µg/mL) in assay [2].

As for `C=CC[C@H](CN(O)C=O)C(=O)N[C@H](C(=O)N(C)C)C(C)(C)C`, the MIC was more than 200 µM in assay [1] and 50 µM (≈ 15.7 µg/mL) in assay [2].

As to `CC(C)CC[C@H](CN(O)C=O)C(=O)N[C@H](C(=O)N(C)C)C(C)(C)C`, the minimum inhibitory concentration (MIC) in assay [1] is 200 µM (≈ 68.7 µg/mL); in assay [2], 50 µM (≈ 17.2 µg/mL).

Turning to `CCCCC[C@H](CN(O)C=O)C(=O)N[C@H](C(=O)N(C)C)C(C)(C)C`, the MIC in assay [1] and in assay [2] was 25 µM (≈ 8.59 µg/mL) each time.

As to `CCCCCCC[C@H](CN(O)C=O)C(=O)N[C@H](C(=O)N(C)C)C(C)(C)C`, the MIC in assay [1] and in assay [2] was more than 200 µM in each case.

`CCCCCCCC[C@H](CN(O)C=O)C(=O)N[C@H](C(=O)N(C)C)C(C)(C)C`: the MIC in assay [1] and in assay [2] was more than 200 µM throughout.

As to `CN(C)C(=O)[C@@H](NC(=O)[C@H](Cc1ccccc1)CN(O)C=O)C(C)(C)C`, the MIC in assay [1] was determined as 50 µM (≈ 18.2 µg/mL); in assay [2], 25 µM (≈ 9.09 µg/mL).

In the case of `CCCC[C@@H](CN(O)C=O)C(=O)N[C@H](C(=O)N(C)C)C(C)(C)C`, the MIC in assay [1] and in assay [2] was more than 200 µM throughout.

For `CN(C)C(=O)[C@@H](NC(=O)[C@H](CC1CCCCC1)CN(O)C=O)C(C)(C)C`, the MIC came to 25 µM (≈ 9.24 µg/mL) in assay [1] and 50 µM (≈ 18.5 µg/mL) in assay [2].

For `CC#CC[C@H](CN(O)C=O)C(=O)N[C@H](C(=O)N(C)C)C(C)(C)C`, the MIC was determined as 100 µM (≈ 32.5 µg/mL) in assay [1] and 50 µM (≈ 16.3 µg/mL) in assay [2].

Consider `CCC[C@H](CN(O)C=O)C(=O)N[C@H](C(=O)N(C)C)C(C)(C)C`, for which the MIC is more than 200 µM in assay [1] and 50 µM (≈ 15.8 µg/mL) in assay [2].

In the case of `CCCC[C@H](CCN(O)C=O)C(=O)N[C@H](C(=O)N(C)C)C(C)(C)C`, the MIC in assay [1] and in assay [2] was more than 200 µM in each case.

Turning to `CN(C)C(=O)[C@@H](NC(=O)[C@H](CC1CCCC1)CN(O)C=O)C(C)(C)C`, the MIC in assay [1] and in assay [2] was 12.5 µM (≈ 4.44 µg/mL) throughout.

On to `CC(C)[C@H](CN(O)C=O)C(=O)N[C@H](C(=O)N(C)C)C(C)(C)C`, for which the MIC in assay [1] and in assay [2] was more than 200 µM each time.

Turning to `CCCCCC[C@H](CN(O)C=O)C(=O)N[C@H](C(=O)N(C)C)C(C)(C)C`, the results for the MIC in assay [1] and in assay [2] were more than 200 µM and 100 µM (≈ 35.7 µg/mL), respectively.

For `CCCC[C@@H](C(=O)N[C@H](C(=O)N(C)C)C(C)(C)C)N(O)C=O`, the MIC in assay [1] and in assay [2] was more than 200 µM each time. Further, the inhibition in assay [3] was found to be 20%.

On to `CCCC[C@H](C(=O)N[C@H](C(=O)N(C)C)C(C)(C)C)N(O)C=O`, for which the MIC in assay [1] and in assay [2] was more than 200 µM in each case. In assay [3], the inhibition was 30%.

Consider `CCSC[C@H](CN(O)C=O)C(=O)N[C@H](C(=O)N(C)C)C(C)(C)C`, for which the figures for the MIC in assay [1] and in assay [2] were more than 200 µM and 25 µM (≈ 8.69 µg/mL), respectively.

For the compound `CN(C)C(=O)[C@@H](NC(=O)[C@@H](CN(O)C=O)C1CCCC1)C(C)(C)C`, the MIC in assay [1] and in assay [2] was more than 200 µM in each case.

Turning to `C[C@H](CN(O)C=O)C(=O)N[C@H](C(=O)N(C)C)C(C)(C)C`, the MIC in assay [1] and in assay [2] was more than 200 µM throughout.

Take `CCCC[C@@H](C(=O)N[C@H](C(=O)N(C)C)C(C)(C)C)C(C)N(O)C=O` (some centres undefined): the minimum inhibitory concentration (MIC) in assay [1] and in assay [2] was more than 200 µM throughout.

For `CN(C)C(=O)[C@@H](NC(=O)[C@@H](CN(O)C=O)CN1CCCCC1)C(C)(C)C`, the MIC in assay [1] and in assay [2] was more than 200 µM throughout.

A word on the MIC: it is the least concentration at which growth counts as inhibited. A word on the inhibition: it is the change of the read-out against control, counted positive when it falls.

Source of the values: ChEMBL document CHEMBL1146620, “Structure-activity relationships of the peptide deformylase inhibitor BB-3497: modification of the methylene spacer and the P1' side chain” (Bioorg Med Chem Lett, 2003).
